Reference: the NIST ThermoML archive (doi:10.1016/j.jct.2018.09.012)
± gives the expanded uncertainty stated by the source.

Tests used:
[1] = for vapor or sublimation pressure: Gas chromatography; for Normal melting temperature: Crystal
[2] = Molar enthalpy of transition or fusion; settings: Crystal; DSC

Compound | vapor or sublimation pressure ([1]; 298.15 K, Metastable liquid) | vapor or sublimation pressure ([1]; 310 K, Metastable liquid) | vapor or sublimation pressure ([1]; 320 K, Metastable liquid) | vapor or sublimation pressure ([1]; 330 K, Metastable liquid) | vapor or sublimation pressure ([1]; 340 K, Metastable liquid) | vapor or sublimation pressure ([1]; 360 K, Liquid) | vapor or sublimation pressure ([1]; 370 K, Liquid) | vapor or sublimation pressure ([1]; 380 K, Liquid) | vapor or sublimation pressure ([1]; 390 K, Liquid) | vapor or sublimation pressure ([1]; 400 K, Liquid) | vapor or sublimation pressure ([1]; 410 K, Liquid) | vapor or sublimation pressure ([1]; 420 K, Liquid) | vapor or sublimation pressure ([1]; 430 K, Liquid) | vapor or sublimation pressure ([1]; 440 K, Liquid) | vapor or sublimation pressure ([1]; 450 K, Liquid) | Normal melting temperature ([1]; DTA) | Molar enthalpy of transition or fusion [2] | vapor or sublimation pressure ([1]; 350 K, Metastable liquid) | further results
CC1(C)CCC[C@]2(C)[C@H]3CCO[C@]3(C)CC[C@@H]12 [(-)-Ambroxide] | 0.00012 ± 3e-05 kPa | 0.00039 ± 0.00011 kPa | 0.00096 ± 0.00025 kPa | 0.0023 ± 0.0006 kPa | 0.0049 ± 0.0012 kPa | 0.02 ± 0.004 kPa | 0.038 ± 0.007 kPa | 0.069 ± 0.012 kPa | 0.12 ± 0.018 kPa | 0.2 ± 0.026 kPa | 0.32 ± 0.039 kPa | 0.51 ± 0.057 kPa | 0.77 ± 0.086 kPa | 1.1 ± 0.13 kPa | 1.7 ± 0.2 kPa | 72.7 ± 1.3 °C | 4.85 ± 0.191 kcal/mol | – | vapor or sublimation pressure ([1]; 350 K, Liquid): 0.01 ± 0.002 kPa; vapor or sublimation pressure ([1]; 460 K, Liquid): 2.4 ± 0.24 kPa; vapor or sublimation pressure ([1]; 470 K, Liquid): 3.4 ± 0.34 kPa; vapor or sublimation pressure ([1]; 480 K, Liquid): 4.7 ± 0.47 kPa; vapor or sublimation pressure ([1]; 490 K, Liquid): 6.3 ± 0.63 kPa; vapor or sublimation pressure ([1]; 500 K, Liquid): 8.4 ± 0.84 kPa; Normal melting temperature ([1]; visual observation): 75.00 ± 3 °C
CC1COCc2cc3c(cc21)C(C)(C)C(C)C3(C)C (stereo not drawn) [Galaxolide] | 2.6e-05 ± 8e-06 kPa | 9.9e-05 ± 2.9e-05 kPa | 0.00027 ± 8e-05 kPa | 0.00071 ± 0.00019 kPa | 0.0017 ± 0.0004 kPa | – | – | – | – | – | – | – | – | – | – | – | – | 0.0038 ± 0.0009 kPa | vapor or sublimation pressure ([1]; 360 K, Metastable liquid): 0.0081 ± 0.0018 kPa; vapor or sublimation pressure ([1]; 370 K, Metastable liquid): 0.016 ± 0.003 kPa; vapor or sublimation pressure ([1]; 380 K, Metastable liquid): 0.032 ± 0.006 kPa; vapor or sublimation pressure ([1]; 390 K, Metastable liquid): 0.058 ± 0.009 kPa; vapor or sublimation pressure ([1]; 400 K, Metastable liquid): 0.1 ± 0.014 kPa; vapor or sublimation pressure ([1]; 410 K, Metastable liquid): 0.16 ± 0.022 kPa; vapor or sublimation pressure ([1]; 420 K, Metastable liquid): 0.29 ± 0.035 kPa; vapor or sublimation pressure ([1]; 430 K, Metastable liquid): 0.46 ± 0.055 kPa; vapor or sublimation pressure ([1]; 440 K, Metastable liquid): 0.72 ± 0.088 kPa; vapor or sublimation pressure ([1]; 450 K, Metastable liquid): 1.1 ± 0.14 kPa; vapor or sublimation pressure ([1]; 460 K, Metastable liquid): 1.6 ± 0.16 kPa; vapor or sublimation pressure ([1]; 470 K, Metastable liquid): 2.4 ± 0.24 kPa; vapor or sublimation pressure ([1]; 480 K, Metastable liquid): 3.4 ± 0.34 kPa; vapor or sublimation pressure ([1]; 490 K, Metastable liquid): 4.8 ± 0.48 kPa; vapor or sublimation pressure ([1]; 500 K, Metastable liquid): 6.6 ± 0.66 kPa
c1ccc2c(c1)oc1ccccc12 [dibenzo[bd]furan] | 0.0011 ± 0.0001 kPa | 0.0031 ± 0.0003 kPa | 0.007 ± 0.0007 kPa | 0.015 ± 0.002 kPa | 0.03 ± 0.003 kPa | 0.11 ± 0.011 kPa | 0.18 ± 0.018 kPa | 0.31 ± 0.031 kPa | 0.51 ± 0.051 kPa | 0.8 ± 0.08 kPa | 1.2 ± 0.12 kPa | 1.8 ± 0.18 kPa | 2.6 ± 0.26 kPa | 3.7 ± 0.37 kPa | 5.2 ± 0.52 kPa | – | – | 0.058 ± 0.006 kPa | –
c1ccc2ccccc2c1 [naphthalene] | – | – | – | – | – | – | – | – | – | – | – | – | – | – | – | 79.2 ± 1.4 °C | 4.57 ± 0.108 kcal/mol | – | –
